Assays:
[1] = target: Voltage-dependent L-type calcium channel subunit alpha-1C (Rattus norvegicus, UniProt P22002); format: functional
[2] = target: T1, Gastrin/cholecystokinin type B receptor (Homo sapiens, UniProt P32239)
T1 sequence (P32239 whole entry): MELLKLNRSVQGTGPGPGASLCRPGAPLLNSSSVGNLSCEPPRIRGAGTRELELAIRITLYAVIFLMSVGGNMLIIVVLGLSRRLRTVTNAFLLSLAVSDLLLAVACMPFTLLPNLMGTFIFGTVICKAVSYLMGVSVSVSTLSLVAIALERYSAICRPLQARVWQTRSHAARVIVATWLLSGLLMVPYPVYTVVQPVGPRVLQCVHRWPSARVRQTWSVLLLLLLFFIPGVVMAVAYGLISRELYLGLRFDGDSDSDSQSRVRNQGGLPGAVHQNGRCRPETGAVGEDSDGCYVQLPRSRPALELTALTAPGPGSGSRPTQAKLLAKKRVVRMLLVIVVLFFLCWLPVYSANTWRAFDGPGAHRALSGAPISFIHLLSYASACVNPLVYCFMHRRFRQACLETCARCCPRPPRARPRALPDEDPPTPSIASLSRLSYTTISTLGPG

[3] = target: Sodium-dependent noradrenaline transporter (Homo sapiens, UniProt P23975)
[4] = target: T2, 5-hydroxytryptamine receptor 1A (Homo sapiens, UniProt P08908); format: functional, cell-based
T2 sequence (P08908 whole entry): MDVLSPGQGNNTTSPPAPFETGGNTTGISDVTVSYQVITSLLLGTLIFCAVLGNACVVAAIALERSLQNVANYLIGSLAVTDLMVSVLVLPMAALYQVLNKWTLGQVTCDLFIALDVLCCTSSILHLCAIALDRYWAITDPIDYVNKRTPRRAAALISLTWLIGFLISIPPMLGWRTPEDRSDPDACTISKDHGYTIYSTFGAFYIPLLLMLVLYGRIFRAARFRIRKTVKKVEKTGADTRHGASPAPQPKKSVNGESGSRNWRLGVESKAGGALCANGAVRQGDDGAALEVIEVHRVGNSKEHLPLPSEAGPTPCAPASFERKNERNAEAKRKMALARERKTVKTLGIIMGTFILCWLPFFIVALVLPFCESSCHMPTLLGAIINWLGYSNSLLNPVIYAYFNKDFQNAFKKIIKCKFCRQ

[5] = target: T3, Equilibrative nucleoside transporter 1 (Homo sapiens, UniProt Q99808)
T3 sequence (Q99808 whole entry): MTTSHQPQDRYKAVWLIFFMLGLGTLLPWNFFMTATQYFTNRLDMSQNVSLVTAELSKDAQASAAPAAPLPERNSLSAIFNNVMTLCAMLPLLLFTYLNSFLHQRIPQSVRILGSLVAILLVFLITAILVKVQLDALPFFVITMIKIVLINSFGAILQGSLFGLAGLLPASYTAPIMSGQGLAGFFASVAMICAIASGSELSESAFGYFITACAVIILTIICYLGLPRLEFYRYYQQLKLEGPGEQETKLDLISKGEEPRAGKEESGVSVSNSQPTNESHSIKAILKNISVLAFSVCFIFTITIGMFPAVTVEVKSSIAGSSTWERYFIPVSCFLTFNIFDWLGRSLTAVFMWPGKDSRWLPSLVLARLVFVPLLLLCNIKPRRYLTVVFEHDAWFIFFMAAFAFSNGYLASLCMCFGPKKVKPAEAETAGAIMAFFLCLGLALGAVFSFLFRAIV

[6] = target: T4, Alpha-1A adrenergic receptor (Homo sapiens, UniProt P35348); format: functional, cell-based
T4 sequence (P35348 whole entry): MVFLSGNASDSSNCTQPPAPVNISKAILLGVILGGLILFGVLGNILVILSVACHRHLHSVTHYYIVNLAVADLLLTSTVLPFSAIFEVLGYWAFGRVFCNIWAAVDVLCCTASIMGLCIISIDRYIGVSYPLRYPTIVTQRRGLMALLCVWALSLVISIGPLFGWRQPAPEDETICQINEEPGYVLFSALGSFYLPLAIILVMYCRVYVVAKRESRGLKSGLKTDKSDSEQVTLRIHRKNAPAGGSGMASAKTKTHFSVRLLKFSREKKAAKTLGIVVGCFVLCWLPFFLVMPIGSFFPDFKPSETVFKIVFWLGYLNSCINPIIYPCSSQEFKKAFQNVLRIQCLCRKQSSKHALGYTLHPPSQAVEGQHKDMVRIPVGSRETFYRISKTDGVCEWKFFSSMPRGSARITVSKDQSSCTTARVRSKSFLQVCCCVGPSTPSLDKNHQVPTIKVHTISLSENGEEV

[7] = target: Cannabinoid receptor 1 (Homo sapiens, UniProt P21554); format: functional, cell-based
[8] = target: T5, Progesterone receptor (Homo sapiens, UniProt P06401); format: functional
T5 sequence (P06401 whole entry): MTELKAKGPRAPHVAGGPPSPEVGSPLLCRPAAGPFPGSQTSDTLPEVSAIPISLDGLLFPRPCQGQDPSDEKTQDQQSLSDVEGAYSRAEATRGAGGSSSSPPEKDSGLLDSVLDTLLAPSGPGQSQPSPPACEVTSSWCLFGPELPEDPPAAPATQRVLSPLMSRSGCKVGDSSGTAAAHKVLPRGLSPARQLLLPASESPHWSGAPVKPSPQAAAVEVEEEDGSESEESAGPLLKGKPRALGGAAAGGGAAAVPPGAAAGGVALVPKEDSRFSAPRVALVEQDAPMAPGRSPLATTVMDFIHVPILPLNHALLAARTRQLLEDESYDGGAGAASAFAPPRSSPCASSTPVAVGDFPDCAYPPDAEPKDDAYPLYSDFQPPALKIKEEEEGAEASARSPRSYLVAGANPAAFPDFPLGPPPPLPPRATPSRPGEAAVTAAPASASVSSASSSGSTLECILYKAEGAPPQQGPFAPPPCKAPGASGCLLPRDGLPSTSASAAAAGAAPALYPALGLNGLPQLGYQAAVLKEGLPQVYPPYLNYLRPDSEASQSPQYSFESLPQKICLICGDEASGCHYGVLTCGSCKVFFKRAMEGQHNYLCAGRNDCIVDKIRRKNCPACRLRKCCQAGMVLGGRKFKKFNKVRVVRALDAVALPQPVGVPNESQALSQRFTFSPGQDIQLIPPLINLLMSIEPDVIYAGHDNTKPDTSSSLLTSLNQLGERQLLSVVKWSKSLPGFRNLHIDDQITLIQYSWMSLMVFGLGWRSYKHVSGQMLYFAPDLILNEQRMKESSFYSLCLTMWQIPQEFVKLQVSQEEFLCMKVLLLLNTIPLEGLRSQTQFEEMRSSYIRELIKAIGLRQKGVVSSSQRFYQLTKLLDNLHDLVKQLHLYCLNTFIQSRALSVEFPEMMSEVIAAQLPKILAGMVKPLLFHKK

[9] = target: 5-hydroxytryptamine receptor 2A (Homo sapiens, UniProt P28223); format: functional, cell-based
Note: assay procedure not described here.

Sequence of Cannabinoid receptor 1 (P21554 whole entry): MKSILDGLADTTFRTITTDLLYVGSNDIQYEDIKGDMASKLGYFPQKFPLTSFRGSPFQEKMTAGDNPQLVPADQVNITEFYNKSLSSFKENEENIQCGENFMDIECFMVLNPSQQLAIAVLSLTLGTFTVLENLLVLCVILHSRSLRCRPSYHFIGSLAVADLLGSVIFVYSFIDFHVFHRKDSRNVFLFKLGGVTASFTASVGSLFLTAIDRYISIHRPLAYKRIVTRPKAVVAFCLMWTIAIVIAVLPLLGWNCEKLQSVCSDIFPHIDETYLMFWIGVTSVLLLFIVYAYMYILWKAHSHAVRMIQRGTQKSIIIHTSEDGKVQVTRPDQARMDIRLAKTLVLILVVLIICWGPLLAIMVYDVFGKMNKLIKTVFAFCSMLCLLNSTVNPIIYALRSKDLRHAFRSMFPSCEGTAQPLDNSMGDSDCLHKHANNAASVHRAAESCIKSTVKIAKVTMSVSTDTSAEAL
Sequence of Sodium-dependent noradrenaline transporter (P23975 whole entry): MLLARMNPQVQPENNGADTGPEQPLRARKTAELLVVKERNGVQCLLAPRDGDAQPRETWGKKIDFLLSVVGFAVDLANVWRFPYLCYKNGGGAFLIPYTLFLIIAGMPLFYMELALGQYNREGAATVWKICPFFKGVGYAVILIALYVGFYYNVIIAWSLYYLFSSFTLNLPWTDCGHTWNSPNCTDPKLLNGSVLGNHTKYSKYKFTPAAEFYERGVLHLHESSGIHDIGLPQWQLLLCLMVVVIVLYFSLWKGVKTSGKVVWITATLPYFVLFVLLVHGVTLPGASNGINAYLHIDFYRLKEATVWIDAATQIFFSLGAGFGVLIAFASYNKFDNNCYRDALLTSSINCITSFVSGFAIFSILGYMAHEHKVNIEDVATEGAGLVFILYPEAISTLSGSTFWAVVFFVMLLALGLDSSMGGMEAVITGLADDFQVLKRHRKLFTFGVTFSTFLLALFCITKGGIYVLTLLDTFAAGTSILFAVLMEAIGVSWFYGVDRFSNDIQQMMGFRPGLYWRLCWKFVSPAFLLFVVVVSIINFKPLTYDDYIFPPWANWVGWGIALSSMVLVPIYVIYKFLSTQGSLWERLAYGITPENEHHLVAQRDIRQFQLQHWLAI
Sequence of Voltage-dependent L-type calcium channel subunit alpha-1C (P22002 whole entry): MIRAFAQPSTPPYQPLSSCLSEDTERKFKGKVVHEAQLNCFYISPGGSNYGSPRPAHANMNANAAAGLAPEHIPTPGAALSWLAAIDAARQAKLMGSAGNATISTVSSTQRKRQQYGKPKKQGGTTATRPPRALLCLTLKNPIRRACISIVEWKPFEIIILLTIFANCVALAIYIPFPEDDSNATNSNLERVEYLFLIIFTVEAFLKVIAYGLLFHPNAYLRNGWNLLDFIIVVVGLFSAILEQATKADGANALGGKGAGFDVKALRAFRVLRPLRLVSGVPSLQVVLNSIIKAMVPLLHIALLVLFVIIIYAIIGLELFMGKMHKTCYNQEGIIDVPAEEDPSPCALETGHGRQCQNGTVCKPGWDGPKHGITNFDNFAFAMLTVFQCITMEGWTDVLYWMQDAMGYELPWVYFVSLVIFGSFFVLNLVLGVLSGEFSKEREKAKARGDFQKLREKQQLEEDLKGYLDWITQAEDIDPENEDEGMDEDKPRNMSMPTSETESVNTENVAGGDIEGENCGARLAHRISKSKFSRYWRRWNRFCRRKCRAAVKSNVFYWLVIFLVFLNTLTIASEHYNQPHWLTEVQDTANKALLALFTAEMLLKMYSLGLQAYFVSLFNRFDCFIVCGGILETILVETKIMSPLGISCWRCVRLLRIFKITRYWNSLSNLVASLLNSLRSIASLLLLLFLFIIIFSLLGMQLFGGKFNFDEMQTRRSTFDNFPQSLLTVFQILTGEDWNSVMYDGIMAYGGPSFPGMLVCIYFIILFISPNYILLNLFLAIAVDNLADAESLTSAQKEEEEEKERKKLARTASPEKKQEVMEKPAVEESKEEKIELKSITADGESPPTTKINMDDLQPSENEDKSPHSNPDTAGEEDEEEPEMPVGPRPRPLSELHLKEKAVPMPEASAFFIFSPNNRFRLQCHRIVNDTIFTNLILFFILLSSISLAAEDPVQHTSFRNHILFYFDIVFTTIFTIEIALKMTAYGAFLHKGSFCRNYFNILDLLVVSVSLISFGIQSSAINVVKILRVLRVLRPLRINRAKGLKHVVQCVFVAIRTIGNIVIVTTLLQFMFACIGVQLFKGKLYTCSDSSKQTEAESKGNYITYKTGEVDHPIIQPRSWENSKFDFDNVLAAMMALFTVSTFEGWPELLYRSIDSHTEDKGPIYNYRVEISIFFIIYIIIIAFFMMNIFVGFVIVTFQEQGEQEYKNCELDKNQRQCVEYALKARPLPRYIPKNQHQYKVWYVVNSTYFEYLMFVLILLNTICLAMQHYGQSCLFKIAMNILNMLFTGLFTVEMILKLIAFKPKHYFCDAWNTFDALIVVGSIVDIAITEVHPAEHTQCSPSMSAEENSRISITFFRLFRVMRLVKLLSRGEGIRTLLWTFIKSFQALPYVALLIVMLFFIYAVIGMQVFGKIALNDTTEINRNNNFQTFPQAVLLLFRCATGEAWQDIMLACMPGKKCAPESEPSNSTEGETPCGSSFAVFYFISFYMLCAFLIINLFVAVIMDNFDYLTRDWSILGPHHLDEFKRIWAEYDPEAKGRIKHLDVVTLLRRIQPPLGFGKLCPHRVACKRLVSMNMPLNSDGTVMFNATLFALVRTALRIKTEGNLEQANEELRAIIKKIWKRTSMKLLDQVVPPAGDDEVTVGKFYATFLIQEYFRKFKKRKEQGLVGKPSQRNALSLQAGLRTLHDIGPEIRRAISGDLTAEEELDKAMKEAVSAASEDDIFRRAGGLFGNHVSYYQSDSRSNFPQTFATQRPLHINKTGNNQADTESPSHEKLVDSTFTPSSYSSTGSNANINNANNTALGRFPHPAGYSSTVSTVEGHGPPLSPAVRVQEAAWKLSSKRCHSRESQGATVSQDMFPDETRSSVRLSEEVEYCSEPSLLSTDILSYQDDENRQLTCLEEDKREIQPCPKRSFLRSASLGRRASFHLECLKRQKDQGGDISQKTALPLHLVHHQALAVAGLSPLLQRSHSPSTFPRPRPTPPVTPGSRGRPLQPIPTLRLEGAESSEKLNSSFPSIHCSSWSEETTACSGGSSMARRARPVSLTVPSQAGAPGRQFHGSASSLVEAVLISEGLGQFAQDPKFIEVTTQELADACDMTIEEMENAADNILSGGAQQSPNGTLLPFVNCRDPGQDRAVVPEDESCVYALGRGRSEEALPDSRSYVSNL
Sequence of 5-hydroxytryptamine receptor 2A (P28223 whole entry): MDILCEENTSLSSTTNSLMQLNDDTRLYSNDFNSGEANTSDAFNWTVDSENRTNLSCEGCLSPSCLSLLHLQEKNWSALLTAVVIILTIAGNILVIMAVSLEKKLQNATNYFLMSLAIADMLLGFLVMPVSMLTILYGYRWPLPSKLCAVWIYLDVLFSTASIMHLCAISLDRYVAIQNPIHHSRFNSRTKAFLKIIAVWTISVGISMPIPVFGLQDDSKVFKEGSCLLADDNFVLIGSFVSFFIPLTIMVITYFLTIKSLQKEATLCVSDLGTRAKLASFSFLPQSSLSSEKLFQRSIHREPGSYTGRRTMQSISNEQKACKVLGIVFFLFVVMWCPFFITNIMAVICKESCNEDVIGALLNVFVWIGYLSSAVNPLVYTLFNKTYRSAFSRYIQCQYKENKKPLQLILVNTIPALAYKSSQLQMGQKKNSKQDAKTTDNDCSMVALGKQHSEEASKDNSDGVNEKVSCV

Compound	AC50 [1]	AC50 [2]	AC50 [3]	AC50 [4]	AC50 [5]	AC50 [6]	AC50 [7]	AC50 [8]	AC50 [9]
C[C@]1(COc2ccc(N3CCC(Oc4ccc(OC(F)(F)F)cc4)CC3)cc2)Cn2cc([N+](=O)[O-])nc2O1	> 10 µM	> 30 µM	> 10 µM						
C[C@]12CC[C@H](O)CC1=CC[C@@H]1[C@@H]2CC[C@]2(C)C(c3cccnc3)=CC[C@@H]12 [ABIRATERONE]	> 10 µM	> 30 µM	> 30 µM	> 10 µM	> 30 µM				
CC(=O)OCC[N+](C)(C)C [ACETYLCHOLINE]	> 10 µM	> 30 µM	> 30 µM		> 30 µM	> 30 µM	> 30 µM	> 30 µM	
O=C(Nc1nc(-c2cc(Cl)cs2)c(N2CCN(C3CCCCC3)CC2)s1)c1cnc(N2CCC(C(=O)O)CC2)c(Cl)c1 [AVATROMBOPAG]	> 10 µM	> 10 µM	> 10 µM		> 10 µM				
CN(C)C(=O)Oc1cc(OC(=O)N(C)C)cc(C(O)CNC(C)(C)C)c1 (stereo not given) [BAMBUTEROL]		> 30 µM	> 30 µM		> 30 µM			> 30 µM	
C[C@H]1C[C@H]2[C@@H]3CCC4=CC(=O)C=C[C@]4(C)[C@@]3(Cl)[C@@H](O)C[C@]2(C)[C@@]1(O)C(=O)CO [BECLOMETHASONE]	> 10 µM	> 30 µM	> 10 µM		> 30 µM				
CO[C@@]1(NC(=O)CSCC#N)C(=O)N2C(C(=O)O)=C(CSc3nnnn3C)CS[C@@H]21 [CEFMETAZOLE]				> 30 µM		> 30 µM	> 30 µM		
CO/N=C(\C(=O)N[C@@H]1C(=O)N2C(C(=O)[O-])=C(C[n+]3cccc4c3CCC4)CS[C@H]12)c1csc(N)n1 [CEFPIROME]						> 30 µM	> 30 µM		> 30 µM
NS(=O)(=O)c1cc(C2(O)NC(=O)c3ccccc32)ccc1Cl (stereo not given) [CHLORTHALIDONE]	> 10 µM		> 10 µM	> 10 µM	> 10 µM			> 10 µM	
CC[C@H]1OC(=O)[C@H](C)[C@@H](O[C@H]2C[C@@](C)(OC)[C@@H](O)[C@H](C)O2)[C@H](C)[C@@H](O[C@@H]2O[C@H](C)C[C@H](N(C)C)[C@H]2O)[C@](C)(OC)C[C@@H](C)C(=O)[C@H](C)[C@@H](O)[C@]1(C)O [CLARITHROMYCIN]		> 30 µM	> 30 µM		> 30 µM	> 30 µM	> 30 µM	> 30 µM	
COc1ccc2c(c1)[C@]13CCCC[C@@H]1[C@H](C2)N(C)CC3 [DEXTROMETHORPHAN]	> 10 µM	> 30 µM		> 10 µM	> 30 µM				
O=c1oc2ccccc2c(O)c1Cc1c(O)c2ccccc2oc1=O [DICUMAROL]	> 10 µM		> 10 µM	> 10 µM	> 10 µM			> 10 µM	
CCn1cc(C(=O)O)c(=O)c2cc(F)c(N3CCNCC3)nc21 [ENOXACIN]	> 10 µM	> 30 µM	> 10 µM	> 10 µM	> 30 µM				
O=C(O)CSCC(=O)NC1CCSC1=O (stereo not given) [ERDOSTEINE]	> 30 µM	> 30 µM	> 30 µM		> 30 µM	> 30 µM	> 30 µM	> 30 µM	> 30 µM
COc1cccc(N(C)C(=S)Oc2ccc3c(c2)CCCC3)n1 [LIRANAFTATE]	> 30 µM	> 30 µM	> 30 µM		> 30 µM	> 30 µM	> 30 µM	> 30 µM	> 30 µM
C#C[C@]1(O)CC[C@H]2[C@@H]3CCc4cc(OC)ccc4[C@H]3CC[C@@]21C [MESTRANOL]	> 10 µM		10.9 µM	> 10 µM	> 30 µM				
N=C(N)c1ccc2cc(OC(=O)c3ccc(N=C(N)N)cc3)ccc2c1 [NAFAMOSTAT]	> 30 µM	> 30 µM				> 30 µM	> 30 µM		> 30 µM
c1ccc2c(CC3=NCCN3)cccc2c1 [NAPHAZOLINE]						0.0006 µM			
CNC(=O)Oc1ccc2c(c1)[C@]1(C)CCN(C)[C@@H]1N2C [PHYSOSTIGMINE]	> 30 µM	> 30 µM	> 30 µM	> 30 µM	> 30 µM	> 30 µM	> 30 µM	> 30 µM	
CNCCCC1c2ccccc2C=Cc2ccccc21 [PROTRIPTYLINE]	> 10 µM			> 10 µM	> 30 µM			> 10 µM	
COCCCOc1ccnc(C[S+]([O-])c2nc3ccccc3[nH]2)c1C (stereo not given) [RABEPRAZOLE]	> 10 µM	> 30 µM	> 10 µM	> 10 µM	> 30 µM				
O=C(CCCN1CCC2(CC1)C(=O)NCN2c1ccccc1)c1ccc(F)cc1 [SPIPERONE]		> 30 µM				11.8 µM	> 30 µM	> 30 µM	
CCSc1ccc2c(c1)N(CCCN1CCN(C)CC1)c1ccccc1S2 [THIETHYLPERAZINE]			9.6 µM			> 30 µM		> 30 µM	> 30 µM
CN(C)c1cc(NC(=O)CNC(C)(C)C)c(O)c2c1C[C@H]1C[C@H]3[C@H](N(C)C)C(O)=C(C(N)=O)C(=O)[C@@]3(O)C(O)=C1C2=O [TIGECYCLINE]	> 30 µM	> 30 µM	> 30 µM		39.5 µM			> 30 µM	> 30 µM
